Test results taken from doi:10.1101/2023.10.20.563248v1 (biorxiv, 2023).

Tests used:
Conditions in all cases: 1 µM; inhibitor
RPS6KB1 = RPS6KB1 (Homo sapiens, UniProt P23443)
MST1 = MST1 (Homo sapiens, UniProt Q13043)
EIF2AK2 = EIF2AK2 (Homo sapiens, UniProt P19525)
CK2a2 = CK2a2 (Homo sapiens, UniProt P19784)
FRK = FRK (Homo sapiens, UniProt P42685)
VRK1 = VRK1 (Homo sapiens, UniProt Q99986)
EPHB1 = EPHB1 (Homo sapiens, UniProt P54762)
CLK2 = CLK2 (Homo sapiens, UniProt P49760)
CHK2 = CHK2 (Homo sapiens, UniProt O96017)
MAP4K2 = MAP4K2 (Homo sapiens, UniProt Q12851)
Sequence of MAP4K2 (Q12851 whole entry): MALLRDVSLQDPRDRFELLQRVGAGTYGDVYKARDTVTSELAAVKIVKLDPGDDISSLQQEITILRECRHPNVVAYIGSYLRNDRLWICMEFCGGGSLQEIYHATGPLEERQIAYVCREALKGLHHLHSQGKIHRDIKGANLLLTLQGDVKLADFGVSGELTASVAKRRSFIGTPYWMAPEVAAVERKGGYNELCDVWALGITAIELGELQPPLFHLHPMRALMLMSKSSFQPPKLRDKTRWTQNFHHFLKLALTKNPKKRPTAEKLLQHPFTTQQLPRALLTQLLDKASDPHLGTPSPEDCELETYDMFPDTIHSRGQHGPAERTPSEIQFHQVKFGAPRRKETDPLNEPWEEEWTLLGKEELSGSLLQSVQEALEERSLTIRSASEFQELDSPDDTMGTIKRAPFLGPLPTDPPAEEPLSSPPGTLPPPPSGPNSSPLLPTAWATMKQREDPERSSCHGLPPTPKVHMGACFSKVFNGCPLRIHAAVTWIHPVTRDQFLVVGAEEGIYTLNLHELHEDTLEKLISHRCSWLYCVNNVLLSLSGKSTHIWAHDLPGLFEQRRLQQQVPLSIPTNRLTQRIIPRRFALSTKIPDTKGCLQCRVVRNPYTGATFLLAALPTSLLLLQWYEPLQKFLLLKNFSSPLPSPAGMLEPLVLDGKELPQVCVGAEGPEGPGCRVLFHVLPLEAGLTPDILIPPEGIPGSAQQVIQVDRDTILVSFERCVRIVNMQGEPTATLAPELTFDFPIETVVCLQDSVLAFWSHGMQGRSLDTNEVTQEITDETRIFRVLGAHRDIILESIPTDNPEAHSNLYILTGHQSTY

MATK = MATK (Homo sapiens, UniProt P42679)
Sequence of MATK (P42679 whole entry): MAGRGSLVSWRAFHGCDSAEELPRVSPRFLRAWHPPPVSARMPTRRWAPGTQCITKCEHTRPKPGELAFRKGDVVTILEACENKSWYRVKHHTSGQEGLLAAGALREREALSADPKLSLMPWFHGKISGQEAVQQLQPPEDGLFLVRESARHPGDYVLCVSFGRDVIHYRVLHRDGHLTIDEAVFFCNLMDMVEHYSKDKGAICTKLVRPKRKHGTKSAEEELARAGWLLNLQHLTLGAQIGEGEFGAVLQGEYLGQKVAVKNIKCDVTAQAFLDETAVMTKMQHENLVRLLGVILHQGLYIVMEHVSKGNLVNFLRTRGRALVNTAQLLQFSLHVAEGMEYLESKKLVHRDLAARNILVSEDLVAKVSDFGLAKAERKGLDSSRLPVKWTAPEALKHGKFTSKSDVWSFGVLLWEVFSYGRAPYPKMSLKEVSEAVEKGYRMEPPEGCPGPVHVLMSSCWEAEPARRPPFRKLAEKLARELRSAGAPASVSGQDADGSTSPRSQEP

RPS6KA4 = RPS6KA4 (Homo sapiens, UniProt O75676)
Sequence of RPS6KA4 (O75676 whole entry): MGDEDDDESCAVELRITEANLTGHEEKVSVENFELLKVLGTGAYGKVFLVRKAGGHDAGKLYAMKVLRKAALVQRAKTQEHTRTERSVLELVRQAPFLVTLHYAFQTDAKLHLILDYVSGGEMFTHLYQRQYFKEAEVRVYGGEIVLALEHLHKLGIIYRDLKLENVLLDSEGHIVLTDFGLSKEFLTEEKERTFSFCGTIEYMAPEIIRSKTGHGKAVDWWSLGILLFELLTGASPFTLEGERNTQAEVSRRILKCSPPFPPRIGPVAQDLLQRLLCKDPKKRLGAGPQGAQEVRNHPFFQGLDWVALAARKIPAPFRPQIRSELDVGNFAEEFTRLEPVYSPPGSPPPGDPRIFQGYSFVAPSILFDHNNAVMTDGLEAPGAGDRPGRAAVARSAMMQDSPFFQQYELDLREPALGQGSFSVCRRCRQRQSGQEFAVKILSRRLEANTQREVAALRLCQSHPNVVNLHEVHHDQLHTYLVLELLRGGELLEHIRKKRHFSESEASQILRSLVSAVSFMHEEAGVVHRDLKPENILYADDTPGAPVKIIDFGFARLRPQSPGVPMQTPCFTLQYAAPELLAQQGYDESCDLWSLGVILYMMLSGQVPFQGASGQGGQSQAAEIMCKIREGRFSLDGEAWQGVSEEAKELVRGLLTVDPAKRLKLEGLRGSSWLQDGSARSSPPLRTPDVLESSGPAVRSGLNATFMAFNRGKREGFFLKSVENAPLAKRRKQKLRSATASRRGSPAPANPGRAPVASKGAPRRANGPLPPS

p38g = p38g (Homo sapiens, UniProt P53778)
RIPK2 = RIPK2 (Homo sapiens, UniProt O43353)
ACVRL1 = ACVRL1 (Homo sapiens, UniProt P37023)
HIPK2 = HIPK2 (Homo sapiens, UniProt Q9H2X6)
HIPK4 = HIPK4 (Homo sapiens, UniProt Q8NE63)
PRKD2 = PRKD2 (Homo sapiens, UniProt Q9BZL6)
MELK = MELK (Homo sapiens, UniProt Q14680)
SRC = SRC (Homo sapiens, UniProt P12931)
TSK2 = TSK2 (Homo sapiens, UniProt Q96PF2)
Sequence of TSK2 (Q96PF2 whole entry): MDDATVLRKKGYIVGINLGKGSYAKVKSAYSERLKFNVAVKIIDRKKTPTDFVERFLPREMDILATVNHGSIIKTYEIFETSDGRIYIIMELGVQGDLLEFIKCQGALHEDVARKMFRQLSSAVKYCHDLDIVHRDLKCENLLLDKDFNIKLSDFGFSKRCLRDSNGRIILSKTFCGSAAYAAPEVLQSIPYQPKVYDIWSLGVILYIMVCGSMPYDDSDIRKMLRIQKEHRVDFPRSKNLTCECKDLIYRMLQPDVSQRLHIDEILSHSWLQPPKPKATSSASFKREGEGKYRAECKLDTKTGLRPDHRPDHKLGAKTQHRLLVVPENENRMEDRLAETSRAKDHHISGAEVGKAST

RIPK5 = RIPK5 (Homo sapiens, UniProt Q6XUX3)
PAK2 = PAK2 (Homo sapiens, UniProt Q13177)
SIK2 = SIK2 (Homo sapiens, UniProt Q9H0K1)
Sequence of SIK2 (Q9H0K1 whole entry): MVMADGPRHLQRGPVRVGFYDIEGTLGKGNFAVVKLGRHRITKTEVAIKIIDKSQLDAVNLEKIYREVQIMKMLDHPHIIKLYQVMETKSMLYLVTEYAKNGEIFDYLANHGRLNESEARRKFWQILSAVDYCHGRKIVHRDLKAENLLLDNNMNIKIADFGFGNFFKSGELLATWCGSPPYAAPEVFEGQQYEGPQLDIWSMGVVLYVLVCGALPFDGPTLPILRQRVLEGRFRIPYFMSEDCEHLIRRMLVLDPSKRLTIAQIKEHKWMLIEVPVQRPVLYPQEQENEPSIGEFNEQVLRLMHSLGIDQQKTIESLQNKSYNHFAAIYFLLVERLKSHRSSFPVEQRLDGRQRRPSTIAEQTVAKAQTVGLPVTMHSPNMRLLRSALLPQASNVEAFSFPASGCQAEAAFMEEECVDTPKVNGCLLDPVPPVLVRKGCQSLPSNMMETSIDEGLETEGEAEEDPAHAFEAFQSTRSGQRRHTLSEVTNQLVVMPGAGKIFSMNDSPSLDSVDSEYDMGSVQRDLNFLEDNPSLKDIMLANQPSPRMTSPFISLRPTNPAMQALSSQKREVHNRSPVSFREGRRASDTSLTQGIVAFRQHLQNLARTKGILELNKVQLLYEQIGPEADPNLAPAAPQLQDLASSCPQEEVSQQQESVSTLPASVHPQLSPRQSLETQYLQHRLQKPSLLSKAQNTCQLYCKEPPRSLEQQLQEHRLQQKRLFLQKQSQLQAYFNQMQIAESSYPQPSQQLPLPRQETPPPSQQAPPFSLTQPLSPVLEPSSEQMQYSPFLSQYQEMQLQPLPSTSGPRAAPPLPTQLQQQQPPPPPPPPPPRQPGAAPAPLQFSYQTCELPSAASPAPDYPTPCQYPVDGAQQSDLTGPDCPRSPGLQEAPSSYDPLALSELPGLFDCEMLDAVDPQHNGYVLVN

PKCb = PKCb (Homo sapiens, UniProt P05771)
MAP4K4 = MAP4K4 (Homo sapiens, UniProt O95819)
AurC = AurC (Homo sapiens, UniProt Q9UQB9)
Sequence of AurC (Q9UQB9 whole entry): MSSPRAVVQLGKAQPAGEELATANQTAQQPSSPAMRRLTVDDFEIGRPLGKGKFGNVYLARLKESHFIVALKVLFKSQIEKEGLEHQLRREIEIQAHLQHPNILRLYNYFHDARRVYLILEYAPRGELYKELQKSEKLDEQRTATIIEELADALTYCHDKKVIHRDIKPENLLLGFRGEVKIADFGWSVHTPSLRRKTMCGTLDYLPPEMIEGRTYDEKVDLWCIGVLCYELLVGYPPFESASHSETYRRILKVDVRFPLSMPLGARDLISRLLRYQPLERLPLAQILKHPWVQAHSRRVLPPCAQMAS

PKA = PKA (Homo sapiens, UniProt P17612)
CAMK2B = CAMK2B (Homo sapiens, UniProt Q13554)
COT = COT (Homo sapiens, UniProt P41279)
DYRK3 = DYRK3 (Homo sapiens, UniProt O43781)
Sequence of DYRK3 (O43781 whole entry): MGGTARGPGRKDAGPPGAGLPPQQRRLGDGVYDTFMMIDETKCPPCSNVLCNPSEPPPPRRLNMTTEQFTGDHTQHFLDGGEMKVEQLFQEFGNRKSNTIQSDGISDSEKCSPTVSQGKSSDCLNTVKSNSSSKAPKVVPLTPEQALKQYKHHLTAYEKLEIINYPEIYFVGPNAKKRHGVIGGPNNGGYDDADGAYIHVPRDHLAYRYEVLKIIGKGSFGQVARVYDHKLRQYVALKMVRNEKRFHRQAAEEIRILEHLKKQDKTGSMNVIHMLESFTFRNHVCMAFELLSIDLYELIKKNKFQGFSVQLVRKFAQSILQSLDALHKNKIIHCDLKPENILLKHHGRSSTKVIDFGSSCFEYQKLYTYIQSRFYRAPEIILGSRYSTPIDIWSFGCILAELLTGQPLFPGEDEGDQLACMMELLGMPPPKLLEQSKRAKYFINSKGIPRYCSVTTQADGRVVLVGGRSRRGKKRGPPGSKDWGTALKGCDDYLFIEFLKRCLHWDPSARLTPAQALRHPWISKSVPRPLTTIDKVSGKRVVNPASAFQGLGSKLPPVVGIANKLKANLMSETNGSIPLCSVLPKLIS

Sequence of CK2a2 (P19784 whole entry): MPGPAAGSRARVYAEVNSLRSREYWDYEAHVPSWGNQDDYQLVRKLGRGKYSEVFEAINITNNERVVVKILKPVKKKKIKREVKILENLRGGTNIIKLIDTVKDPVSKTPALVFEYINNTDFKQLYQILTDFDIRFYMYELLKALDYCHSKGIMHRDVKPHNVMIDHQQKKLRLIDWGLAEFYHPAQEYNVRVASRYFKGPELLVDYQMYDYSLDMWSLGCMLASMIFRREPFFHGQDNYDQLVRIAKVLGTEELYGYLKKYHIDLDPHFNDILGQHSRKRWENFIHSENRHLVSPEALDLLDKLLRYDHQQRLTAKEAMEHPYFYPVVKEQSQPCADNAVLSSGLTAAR
Sequence of VRK1 (Q99986 whole entry): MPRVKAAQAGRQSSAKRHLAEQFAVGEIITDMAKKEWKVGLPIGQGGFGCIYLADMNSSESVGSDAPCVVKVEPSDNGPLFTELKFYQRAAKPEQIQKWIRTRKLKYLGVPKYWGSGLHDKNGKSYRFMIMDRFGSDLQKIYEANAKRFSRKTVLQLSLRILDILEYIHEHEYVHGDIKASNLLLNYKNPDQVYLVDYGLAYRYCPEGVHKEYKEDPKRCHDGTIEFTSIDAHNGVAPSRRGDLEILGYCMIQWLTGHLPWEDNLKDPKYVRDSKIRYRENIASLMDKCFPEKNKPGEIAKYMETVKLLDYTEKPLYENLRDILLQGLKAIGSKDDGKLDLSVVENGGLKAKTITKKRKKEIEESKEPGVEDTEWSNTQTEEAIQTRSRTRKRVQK

## O=C1NCCCCCNc2nc(c3ccccc3n2)Nc2cc1[nH]n2 [21c, (Z)-3^1H-2,5,11-triaza-1(4,2)-quinazolina-3(3,5)-pyrazolacycloundecaphan-4-one]
RPS6KB1
  21c Remaining activity, percent of control [%]: 86.2%
MST1
  21c Remaining activity, percent of control [%]: 105.6%
EIF2AK2
  21c Remaining activity, percent of control [%]: 75.1%
CK2a2
  21c Remaining activity, percent of control [%]: 85.6%
FRK
  21c Remaining activity, percent of control [%]: 104.0%
VRK1
  21c Remaining activity, percent of control [%]: 91.5%
EPHB1
  21c Remaining activity, percent of control [%]: 77.1%
CLK2
  21c Remaining activity, percent of control [%]: 64.6%
CHK2
  21c Remaining activity, percent of control [%]: 84.0%
MAP4K2
  21c Remaining activity, percent of control [%]: 112.8%
MATK
  21c Remaining activity, percent of control [%]: 78.6%
RPS6KA4
  21c Remaining activity, percent of control [%]: 92.5%
p38g
  21c Remaining activity, percent of control [%]: 88.6%
RIPK2
  21c Remaining activity, percent of control [%]: 105.0%
ACVRL1
  21c Remaining activity, percent of control [%]: 91.0%
HIPK2
  21c Remaining activity, percent of control [%]: 74.8%
HIPK4
  21c Remaining activity, percent of control [%]: 115.2%
PRKD2
  21c Remaining activity, percent of control [%]: 82.0%
MELK
  21c Remaining activity, percent of control [%]: 47.0%
SRC
  21c Remaining activity, percent of control [%]: 94.8%
TSK2
  21c Remaining activity, percent of control [%]: 93.8%
RIPK5
  21c Remaining activity, percent of control [%]: 122.0%
PAK2
  21c Remaining activity, percent of control [%]: 113.2%
SIK2
  21c Remaining activity, percent of control [%]: 97.5%
PKCb
  21c Remaining activity, percent of control [%]: 82.5%
MAP4K4
  21c Remaining activity, percent of control [%]: 81.0%
AurC
  21c Remaining activity, percent of control [%]: 90.2%
PKA
  21c Remaining activity, percent of control [%]: 96.3%
CAMK2B
  21c Remaining activity, percent of control [%]: 88.8%
COT
  21c Remaining activity, percent of control [%]: 115.1%
DYRK3
  21c Remaining activity, percent of control [%]: 96.4%
